The values below are quoted from earlier work in patent publication US20130210879A1, “FORMULATIONS OF BENDAMUSTINE” (priority 2012, published 2013).

For `Cn1c(CCCC(=O)O)nc2cc(N(CCCl)CCCl)ccc21` [Bendamustine], the stability in water entry was “measured in hours”.
